# Experimental data published in PMC6906394, “Radiomodifying action, Pharmacokinetic and Biodistribution of Ethyl 3, 4, 5-trihydroxybenzoate-Implication in development of radiomitigator” (Scientific Reports, 2019).
# Entries after “also recorded” stand apart in the source; their conditions may differ. Where two headings read alike, the source gives them in different places.
# What was measured:
# [1] = system: whole body 60Co-gamma irradiated mice; assay: Liver and kidney function markers SGOT, SGPT, urea and creatinine after irradiation; assay type: in vivo
# Experimental: (§1) Black C57BL/6 male mice weighing 28–30 g were maintained at the Institutional Animal Experimental Facility. Animals were fed according to standard chow diet having free access to food and water ad libitum. The environmental condition was maintained at room temperature (22 ± 2 °C), relative humidity (45–60%) and 12 h dark/light cycle controlled facility. In this study, mice were randomly assigned to four different groups (n = 21) i.e untreated control (UC), GAE-treated (GAE), Radiation + GAE (R + GAE), Radiation group (R). Mice fasted overnight with free access to water before being dosed. Isolated GAE from leaves was dissolved with distilled water and ethanol in (7:3 v/v) and administered orally at a dose of 200 mg/kg body weight to GAE-treated and R + GAE treated groups only. The experiment was carried out in accordance to regulation and guideline of the, Committee for the purpose of control and supervision of Experiments on animals (CPCSEA), and study was approved by Institutional Animal Experimental Committee (IAEC), Institute of Nuclear Medicine & Allied Science, Delhi, India.
# (§2) Group I untreated control (UC), Group II GAE-treated (GAE), Group III Radiation + GAE (R + GAE) and Group IV Radiation (R) exposed. The GAE was administered orally 15 min post irradiation. The whole-body radiation (5 Gy) was carried out using Bhabahtron II, Telecobalt machine, Panacea medical technology, Bangalore. The mice exposed at a dose rate of 0.961 Gy/min at field 35 × 35 cm^2 and the distance maintained from the source was 80 cm.
# SGOT and SGPT are a biomarker of liver function test used to assess liver function and its damage; whereas, urea and creatinine were used to investigate kidney function and its damage. These biomarkers were analyzed in-vitro by the use of commercially available kits of agape, Kerala, India. The assay were performed according to standard procedure mention in the kit protocol. In-vitro SGOT quantitative determination were based on the reaction of L-aspartate with alpha-ketoglutarate. According to the manufacturer protocol reagent were mix and incubated for 1 minute at 37 °C. The changes in absorbance were recorded per minute during 3 minutes. In-vitro kinetic determination of SGPT were based on the reaction of L-alanine with alpha-ketoglutarate. The reagent were mixed and incubated for 1 minute at 37 °C. the changes in absorbance was recorded per minute during 3 minutes at 340 nm. Urea is in-vitro quantitative determine by the method of Talke et al., 1965. Creatinine were in-vitro determined by kits and it can be measured by quionone pigment photometrically. Reagent were mixed and incubated for 5 minute at 37 °C. the sample absorbance and the standard against the reagent blank were measured at 546 nm.
# [2] = Biodistribution of GAE in liver, kidney, heart, spleen and brain after oral administration; assay type: in vivo, mice
# Experimental: The Biodistribution in mice at 15 min, 30 min, 1 h, 2 h, 4 h, 8 h and 24 h after GAE administration are presented in (Fig. 2A,B). […] Moreover; no GAE peak was identified in untreated control and irradiated animals. In the GAE treated group the concentration of GAE is highest in the liver 3383.1 ± 137.79 ng/g at 1 h, 529.13 ± 102.8 ng/g in the kidney at 2 h and 283.1 ± 20.60 ng/g in the brain at 1 h after GAE administration. […] After 2 h of GAE administration its concentration decreased GAE was found in heart, spleen, and kidney up to 4 h, whereas in brain it found in low concentration up to 2 h.
# as §1, §2
# Blood and tissues samples of mice were collected at 15 min, 30 min, 1 h, 2 h, 4 h, 8 h and 24 h after GAE administration (3mice per time). Blood was obtained from retro orbital plexus of mice and collected in heparinized eppendorf tubes, followed by centrifugation at 2500 g for 15 min. The resulting plasma layer was separated and stored in tubes at −20 °C for further analysis. Tissue samples (brain, heart, liver, kidney, and spleen) were weighed and put into the normal saline solution to remove the blood by blotting on filter paper and were minced and homogenized with physiological saline solution (1:2 w/v) thoroughly in an ice bath. The homogenates were stored at −80 °C until the analysis.
# For the extraction from tissue, each aliquot (300 µL) of homogenate (liver, kidney, brain, heart & spleen) was spiked with 20 µL of the IS working solution (100 ng/mL) during analysis; homogenate was dispensed in a standing vial containing 400 µL ACN to precipitate proteins. The biological samples were swirled for 3 min and were centrifuged at 12000 rpm for 10 min at 4 °C. The obtained supernatant was tubed and dried under a stream of nitrogen at 40 °C, the sample was reconstituted with mobile phase, then and 20 µL was injected into the HPLC system.
# GAE was separated on the high-performance liquid chromatography (HPLC), SPD-10A consisting of binary HPLC pump, ultraviolet detector, and a Rheodyne manual injector equipped with a 20 µl loop (Shimadzu, Japan). Separation was achieved on Kinetex Biphenyl RP 100 Å column (2.6 µm, 150 × 4.6 mm) (Phenomenex, Torrance) installed with phenyl cartridges (Phenomenex, Torrance). The system was controlled using class VP software (Shimadzu, Japan). […]
# [3] = R + GAE group (5 Gy, GAE 200 mg/kg oral 15 min post irradiation), 8 h
# [4] = R + GAE group (5 Gy, GAE 200 mg/kg oral 15 min post irradiation), 24 h
# [5] = R + GAE treated group (5 Gy), 200 mg/kg b.wt oral
# [6] = after GAE administration, 200 mg/kg b.wt oral
smiles,measurement,setting,value
"CCOC(=O)c1cc(O)c(O)c(O)c1 [GAE, Ethyl 3,4,5-trihydroxybenzoate]","change of SGOT, SGPT, urea and creatinine in serum compared to irradiated animals not receiving GAE","[1]; GAE 200 mg/kg b.wt oral 15 min post 5 Gy irradiation, P < 0.05",significant reduction
same,SGOT level,[1]; [3],24.10 ± 2.4 U/L
same,SGPT level,[1]; [3],36.01 ± 6.1 U/L
same,urea level,[1]; [3],18.16 ± 0.003 mg/dL
same,SGOT level,[1]; [4],63.11 ± 6.16 U/L
same,SGPT level,[1]; [4],62.15 ± 8.63 U/L
same,creatinine level,"[1]; R + GAE group (5 Gy, GAE 200 mg/kg oral 15 min post irradiation), upto 8 h",1.05 ± 0.04 mg/dL
same,duration of radiomodifying action,"[1]; post irradiation (5 Gy), liver and kidney function biomarkers, efficacy reduced at 24 h",≤ 8 h
same,crossing of the blood-brain barrier,[2]; GAE detected in brain in both GAE and R + GAE treated groups,crosses the blood-brain barrier; also recorded: could cross the blood-brain barrier
same,"concentration of GAE (liver, tissue implied by context)",[2]; [5],1928.5 ± 39.63 ng/g
same,kidney concentration of GAE,[2]; [5],307.77 ± 7.80 ng/g
same,time up to which GAE was found in brain (low concentration),[2]; [6],up to 2 h
same,"time up to which GAE was found in heart, spleen and kidney",[2]; [6],up to 4 h
same,tissues with the highest concentration,"[2]; biodistribution, 200 mg/kg b.wt oral",liver and kidney
same,peak GAE concentration in liver relative to other tissues,[2]; both GAE treated and R + GAE treated groups,two fold higher
same,concentration at 1 h,"[2]; male, C57BL/6, mouse, brain, po, 200 mg/kg, GAE treated group, 200 mg/kg b.wt oral, read-out: concentration of GAE in the brain",283 ± 20.6 ng/g
same,concentration at 1 h,"[2]; male, C57BL/6, mouse, heart, po, 200 mg/kg, GAE treated animals, 200 mg/kg b.wt oral, read-out: GAE concentration in the heart",216 ng/g
same,concentration at 1 h,"[2]; male, C57BL/6, mouse, heart, po, 200 mg/kg, R + GAE group (5 Gy), 200 mg/kg b.wt oral, read-out: GAE concentration in the heart",506 ± 39.4 ng/g
same,concentration at 2 h,"[2]; male, C57BL/6, mouse, kidney, po, 200 mg/kg, GAE treated group, 2 h, 200 mg/kg b.wt oral",529 ± 103 ng/g
same,concentration at 1 h,"[2]; male, C57BL/6, mouse, liver, po, 200 mg/kg, GAE treated group, 200 mg/kg b.wt oral, read-out: concentration of GAE in the liver",3380 ± 138 ng/g
same,concentration at 1 h,"[2]; male, C57BL/6, mouse, spleen, po, 200 mg/kg, GAE treated animals, 200 mg/kg b.wt oral, read-out: GAE concentration in the spleen",484 ng/g
same,concentration at 1 h,"[2]; male, C57BL/6, mouse, spleen, po, 200 mg/kg, R + GAE group (5 Gy), 200 mg/kg b.wt oral, read-out: GAE concentration in the spleen",522 ± 73.2 ng/g
